# Assay results reported in patent US6841177B1, “Pharmacological activities of curcuma longa extracts” (ASAC Compania de Biotecnologia e Investigacion S.A., priority 1999, dated 2005).
# Entries after “also recorded” stand apart in the source; their conditions may differ.
# Test system: HaCat cells
# Test: Incorporation of BrdU in the DNA of human keratinocytes after radiation with ultraviolet light
# Assay type: cell-based
# Description: Culture of the HaCat line
# The HaCat line is an immortalized line of normal human keratinocytes. These cells grow in a culture medium consisting of Hanks liquid to which 5% of foetal bovine serum and 2% of penicillin-streptomycin is added at 37° C. in a CO2 atmosphere.
# To determine the replication rate, the cells were grown in microplates at a density of 2*10^4 cells per matrix. After 24 hours of treatment, the media was renewed and the cultures were incubated for 24 hours at 37° C. with different concentrations of the extracts and different concentrations of the curcumin and psoralen. Parallel controls were carried out with the solvent (ethanol 0.1%). The incorporation of BrdU was determined with the ELISA test.
# The cells were radiated with UVA light at an intensity of 1 J/cm^2 and the incorporation of BrdU was then analysed.
# [1] = after UVA radiation, human keratinocytes
Compound,amount for 20 % incorporation of BrdU [1] [ng],amount for 40 % incorporation of BrdU [1] [ng],amount for 60 % incorporation of BrdU [1] [ng],amount for 80 % incorporation of BrdU [1] [ng],toxicity at the dose giving the same photosensitivisation as Curcuma extracts (10 ng/ml),"dose required to produce the same level of photosensitivisation as Curcuma extracts (after UV radiation, BrdU incorporation) [ng/mL]"
COc1cc(/C=C/C(=O)CC(=O)/C=C/c2ccc(O)c(OC)c2)ccc1O [curcumin],1200,1000,800,600,,
O=c1ccc2cc3ccoc3cc2o1 [psoralen],,,,,toxic doses; also recorded: toxic and mutagenic effects are produced,10
